US20230134843A1, “TREATMENT OF STEM CELL DEFICIENCY” (OSPEDALE SAN RAFFAELE S.R.L., priority 2020, published 2023)
“Also recorded” adds a separate entry of the source.

Test system: stem cell-like cells
Assay: Stem cell-like cells detection (BrdU and p63 staining), stem cell deficiency model
Format: in vivo, mice
Conditions: Fosaprepitant 1 mg/mL (FOSA 1)
Source text: Eight-week-old male mice C57BL6/N (Charles River, Calco, Italy) (WT mice, n=18) and Tac1-deficient B6.Cg-Tac1tm1Bbm/J (Jackson Laboratories, Bar Harbor, Me., USA) (TAC1-KO mice, n=18) were used in all experiments. TAC1-KO mice are homozygous null for the Tac1 gene. […] The corneal thickness and transparency as well as the corneal nerve length are similar to C57BL/6 mice [Barbariga M, Rabiolo A, Fonteyne P, Bignami F, Rama P, Ferrari G. The effect of aging on nerve morphology and substance P expression in mouse and human corneas. Investig Ophthalmol Vis Sci 2018; 59:5329-35. https://doi.org/10.1167/iovs.18-24707.]. Each animal was anesthetized with an intraperitoneal injection of tribromoethanol (250 mg/kg) and a topical anesthetic was applied to their ocular surface prior to the surgical procedure. Total disepithelization was performed based on the model previously described [Amirjamshidi H, Milani B Y, Sagha H M, Movahedan A, Shafiq M A, Lavker R M, et al. Limbal fibroblast conditioned media: A non-invasive treatment for limbal stem cell deficiency. Mol Vis 2011; 17:658], using a blunt spatula to scrap the entire corneal epithelium, including the limbus. Then, fluorescein staining was used to confirm complete removal of the corneal epithelium under the blue light of a slit-lamp microscope. After wounding, eyes were treated with ophthalmic moxifloxacin 1 time/day for 1 week to […]. Fourteen days after disepithelization mice were euthanized using carbon dioxide inhalation and subsequent cervical dislocation. Corneas were collected for immunostaining and western blot analysis. All experimental protocols were approved by the Animal Care and Use Committee of the Istituto di Ricovero e cura a Carattere Scientifico San Raffaele Scientific Institute, in accordance with the ARVO Statement for the Use of Animals in Ophthalmic and Vision Research.
To evaluate the pharmacological inhibition of Substance P, mice received 10 μL of Fosaprepitant topically (IVEMEND, Merck Sharp & Dohme Ltd., Hoddes-don, UK) in two different concentrations: 0.1 mg/mL (FOSA 0.1, n=5) or 1 mg/mL (FOSA 1, n=5) 4 times/day every 2 hours […]. Control animals received instead 10 μL of vehicle (PBS) (WT, n=5). The treatments started the same day that corneal disepithelization was performed.
Immediately after corneal dispepithelization, animals were intraperitoneally injected with […] (BrdU) (50 ug/g body weight, ab142567, Abcam) twice a day (9 a.m and 4 p.m), for 7 days. […] The images were acquired by epifluorescence microscope (Leica CTR5500; Leica Microsystems, Wetzlar, Germany) (20×) and analyzed with Image J software. A negative control using only the secondary antibody was used to establish a fluorescence threshold. […]

With `C[C@@H](O[C@H]1OCCN(Cc2nc(=O)n(P(=O)(O)O)[nH]2)[C@H]1c1ccc(F)cc1)c1cc(C(F)(F)F)cc(C(F)(F)F)c1` [Fosaprepitant, [3-{[(2R,3S)-2-[(1R)-1-[3,5-bis(trifluoromethyl)phenyl]ethoxy]-3-(4-fluorophenyl)morpholin-4-yl]methyl}-5-oxo-2H-1,2,4-triazol-1-yl]phosphonic acid] the “p63 content compared to WT” value was “no differences”, the “BrdU staining in the corneal epithelium compared to WT” value (p<0.01) was “significant increase” and the “number of stem cell-like cells (epithelial stem cells) compared to WT” value (p<0.01) was “increase number”. For the same compound, the “percentage of p63/BrdU colocalization compared to WT” value (p<0.05) was “increased percentage; also recorded: higher percentage”.
